For 42 molecules, pKi and Intrinsic activity results are on record in ChEMBL document CHEMBL3879907, “8-azabicyclo[3.2.1]octane compounds as mu opioid receptor antagonists” (2014).

For assay [1], the target named is Delta-type opioid receptor (Homo sapiens, UniProt P41143). Put plainly: Displacement of [3H]-diprenorphine from human delta opioid receptor expressed in cell membranes. Background: Displacement assays read how much labelled ligand stays bound in the presence of the test substance.
Assay [2] concerns the target Mu-type opioid receptor (Homo sapiens) (UniProt P35372). Put plainly: Intrinsic activity at human mu opioid receptor expressed in CHOK1 cell membranes at 0.00001 to 20 uM after 30 mins by GTP-Eu nucleotide exchange assay relative to DAMGO. The assay is classed as functional. As to conditions: CHO-K1.
Assay [3] has as its target Kappa-type opioid receptor (Cavia porcellus, UniProt P41144). Description: Displacement of [3H]-diprenorphine from guinea pig kappa opioid receptor expressed in CHOK1 cell membranes. As to conditions: cho-k1.

The pKi is the negative decadic logarithm of the Ki, by convention in mol/L. Lower therefore signals a high Ki.

Delta-type opioid receptor, sequence (P41143 whole entry): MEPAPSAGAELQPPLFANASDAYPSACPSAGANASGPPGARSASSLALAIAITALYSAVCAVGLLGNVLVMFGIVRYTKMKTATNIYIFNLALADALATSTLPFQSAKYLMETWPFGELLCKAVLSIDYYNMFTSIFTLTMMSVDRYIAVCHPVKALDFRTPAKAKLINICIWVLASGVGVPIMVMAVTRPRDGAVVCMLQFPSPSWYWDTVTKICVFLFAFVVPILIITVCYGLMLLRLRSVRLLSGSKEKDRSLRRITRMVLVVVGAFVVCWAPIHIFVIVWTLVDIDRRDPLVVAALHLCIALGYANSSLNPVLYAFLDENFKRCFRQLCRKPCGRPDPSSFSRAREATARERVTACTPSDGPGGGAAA
Kappa-type opioid receptor, sequence (P41144 whole entry): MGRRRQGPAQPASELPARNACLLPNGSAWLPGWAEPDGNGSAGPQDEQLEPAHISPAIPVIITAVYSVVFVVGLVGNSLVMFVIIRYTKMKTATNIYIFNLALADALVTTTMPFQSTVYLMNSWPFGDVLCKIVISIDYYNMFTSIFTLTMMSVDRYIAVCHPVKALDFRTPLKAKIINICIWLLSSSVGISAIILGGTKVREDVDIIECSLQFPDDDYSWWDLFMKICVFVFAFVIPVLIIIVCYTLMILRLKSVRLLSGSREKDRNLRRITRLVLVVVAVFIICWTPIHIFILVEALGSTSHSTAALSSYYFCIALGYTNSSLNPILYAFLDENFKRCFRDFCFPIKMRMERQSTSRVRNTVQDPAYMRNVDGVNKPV
Mu-type opioid receptor (Homo sapiens), sequence (P35372 whole entry): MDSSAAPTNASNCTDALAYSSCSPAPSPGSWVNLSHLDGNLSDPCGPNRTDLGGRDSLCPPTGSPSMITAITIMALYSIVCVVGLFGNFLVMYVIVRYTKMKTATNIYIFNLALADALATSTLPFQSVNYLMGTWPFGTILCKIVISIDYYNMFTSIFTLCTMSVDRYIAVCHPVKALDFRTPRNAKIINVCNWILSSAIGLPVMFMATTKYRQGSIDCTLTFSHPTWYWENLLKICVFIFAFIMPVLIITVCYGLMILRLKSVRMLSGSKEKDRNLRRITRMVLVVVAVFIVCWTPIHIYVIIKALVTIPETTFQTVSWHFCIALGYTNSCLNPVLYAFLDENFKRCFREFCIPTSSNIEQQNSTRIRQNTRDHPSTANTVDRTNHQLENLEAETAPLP

Take `CN(C)S(=O)(=O)N(CCN1[C@@H]2CC[C@H]1C[C@@H](c1cccc(C(N)=O)c1)C2)Cc1c(F)cccc1F.O=C(O)C(F)(F)F`: the pKi in assay [1] and in assay [3] was 7 to 10.5 each time. In assay [2], the Intrinsic activity was less than 40%.
As for `C[C@H](CN1[C@@H]2CC[C@H]1C[C@@H](c1cccc(O)c1)C2)N(Cc1ccccc1)C(=O)Cc1ccccc1`, the pKi in assay [1] and in assay [3] was 7 to 10.5 throughout. The molecule further gave an Intrinsic activity in assay [2] of less than 40%.
`O=C(O)CCC(=O)N(CCN1[C@@H]2CC[C@H]1C[C@@H](c1cccc(O)c1)C2)Cc1c(F)cccc1F`: the pKi in assay [1] and in assay [3] was 7 to 10.5 throughout. The Intrinsic activity in assay [2] was less than 40%.
In the case of `NC(=O)c1cccc([C@H]2C[C@H]3CC[C@@H](C2)N3CCN(CC2CCC2)C(=O)CO)c1.O=C(O)C(F)(F)F`, the pKi in assay [1] and in assay [3] was 7 to 10.5 each time. In assay [2], this molecule showed an Intrinsic activity of less than 40%.
For the molecule `NCC(=O)N(CCN1[C@@H]2CC[C@H]1C[C@@H](c1cccc(C(N)=O)c1)C2)CC1CCCCC1`, the negative-log Ki (pKi) in assay [1] and in assay [3] was 7 to 10.5 throughout. Moreover, in assay [2], the Intrinsic activity is less than 40%.
`CCC(=O)N(CCN1[C@@H]2CC[C@H]1C[C@@H](c1cccc(O)c1)C2)CC1CCCCC1`: the pKi in assay [1] and in assay [3] was 7 to 10.5 each time. The Intrinsic activity in assay [2] is less than 40%.
For the molecule `NC(=O)c1cccc([C@H]2C[C@H]3CC[C@@H](C2)N3CCN(CC2CCC(F)(F)CC2)C(=O)[C@H](O)CO)c1.O=C(O)C(F)(F)F`, the negative logarithm of the Ki (pKi) in assay [1] and in assay [3] was 7 to 10.5 each time. The same molecule returned an Intrinsic activity in assay [2] of less than 40%.
As to `C[C@H](CN1[C@@H]2CC[C@H]1C[C@@H](c1cccc(O)c1)C2)N(Cc1ccccc1)C(=O)C1CC1`, the pKi in assay [1] and in assay [3] was 7 to 10.5 each time. This molecule registered an Intrinsic activity in assay [2] of less than 40%.
Turning to `CC(C)(C)C(=O)N(CCN1[C@@H]2CC[C@H]1C[C@@H](c1cccc(C(N)=O)c1)C2)Cc1c(F)cccc1F.O=C(O)C(F)(F)F`, the negative-log Ki (pKi) in assay [1] and in assay [3] was 7 to 10.5 each time. The molecule also showed an Intrinsic activity in assay [2] of less than 40%.
Turning to `O=C([C@@H](O)Cc1ccccc1)N(CCN1[C@@H]2CC[C@H]1C[C@@H](c1cccc(O)c1)C2)CC1CCCCC1`, the pKi in assay [1] and in assay [3] was 7 to 10.5 each time. The molecule further gave an Intrinsic activity in assay [2] of less than 40%.
Turning to `N#CCC(=O)N(CCN1[C@@H]2CC[C@H]1C[C@@H](c1cccc(C(N)=O)c1)C2)Cc1c(F)cccc1F.O=C(O)C(F)(F)F`, the negative-log Ki (pKi) in assay [1] and in assay [3] was 7 to 10.5 each time. The Intrinsic activity in assay [2] was less than 40%.
For the molecule `C[C@H](CN1[C@@H]2CC[C@H]1C[C@@H](c1cccc(O)c1)C2)N(Cc1ccccc1)C(=O)C1CCCC1`, the pKi in assay [1] and in assay [3] was 7 to 10.5 each time. Besides, the Intrinsic activity in assay [2] is less than 40%.
In the case of `NC(=O)c1cccc([C@H]2C[C@H]3CC[C@@H](C2)N3CCN(CCc2ccc(F)cc2)C(=O)CO)c1.O=C(O)C(F)(F)F`, the pKi in assay [1] and in assay [3] was 7 to 10.5 throughout. Further, the Intrinsic activity in assay [2] was less than 40%.
As to `CN(C)CC(=O)N(CCN1[C@@H]2CC[C@H]1C[C@@H](c1cccc(C(N)=O)c1)C2)CC1CCCCC1`, the pKi in assay [1] and in assay [3] was 7 to 10.5 in each case. In assay [2], the Intrinsic activity is less than 40%.
As to `O=C(O)CC1(CC(=O)N(CCN2[C@@H]3CC[C@H]2C[C@@H](c2cccc(O)c2)C3)CC2CCCCC2)CCCCC1`, the pKi in assay [1] and in assay [3] was 7 to 10.5 each time. Also, in assay [2], the Intrinsic activity is less than 40%.
With `CC(C)(CC(=O)O)CC(=O)N(CCN1[C@@H]2CC[C@H]1C[C@@H](c1cccc(O)c1)C2)CC1CCCCC1`, the pKi in assay [1] and in assay [3] was 7 to 10.5 in each case. In assay [2], this molecule registered an Intrinsic activity of less than 40%.
In the case of `CC(C)(C)OCC(=O)N(CCN1[C@@H]2CC[C@H]1C[C@@H](c1cccc(C(N)=O)c1)C2)Cc1c(F)cccc1F.O=C(O)C(F)(F)F`, the pKi in assay [1] and in assay [3] was 7 to 10.5 in each case. The molecule also had an Intrinsic activity in assay [2] of less than 40%.
For the molecule `NC(=O)c1cccc([C@H]2C[C@H]3CC[C@@H](C2)N3CCN(CC2CCCC2)C(=O)[C@H](O)CO)c1.O=C(O)C(F)(F)F`, the pKi in assay [1] and in assay [3] was 7 to 10.5 in each case. In assay [2], this molecule yielded an Intrinsic activity of less than 40%.
Turning to `CN(C)S(=O)(=O)N(CCN1[C@@H]2CC[C@H]1C[C@@H](c1cccc(C(N)=O)c1)C2)CC1CCCCC1.O=C(O)C(F)(F)F`, the pKi in assay [1] and in assay [3] was 7 to 10.5 in each case. The molecule further returned an Intrinsic activity in assay [2] of less than 40%.
For the molecule `NC(=O)c1cccc([C@H]2C[C@H]3CC[C@@H](C2)N3CCN(CC2CCCCC2)C(=O)C2(O)CC2)c1.O=C(O)C(F)(F)F`, the negative-log Ki (pKi) in assay [1] and in assay [3] was 7 to 10.5 throughout. In addition, in assay [2], the Intrinsic activity was less than 40%.
For `CS(=O)(=O)N(CCN1[C@@H]2CC[C@H]1C[C@@H](c1cccc(C(N)=O)c1)C2)Cc1ccccc1.O=C(O)C(F)(F)F`, the pKi in assay [1] and in assay [3] was 7 to 10.5 each time. In assay [2], the Intrinsic activity was less than 40%.
Regarding `NC(=O)c1cccc([C@H]2C[C@H]3CC[C@@H](C2)N3CCN(CC2CCCCC2)C(=O)CCC(=O)O)c1`, the pKi in assay [1] and in assay [3] was 7 to 10.5 throughout. The molecule further showed an Intrinsic activity in assay [2] of less than 40%.
In the case of `COC(=O)CCC(=O)N(CCN1[C@@H]2CC[C@H]1C[C@@H](c1cccc(O)c1)C2)CC1CCCCC1`, the pKi in assay [1] and in assay [3] was 7 to 10.5 throughout. Also, the Intrinsic activity in assay [2] was less than 40%.
In the case of `CS(=O)(=O)N(CCN1[C@@H]2CC[C@H]1C[C@@H](c1cccc(C(N)=O)c1)C2)CC1CCCC1.O=C(O)C(F)(F)F`, the negative logarithm of the Ki (pKi) in assay [1] and in assay [3] was 7 to 10.5 throughout. In assay [2], this molecule showed an Intrinsic activity of less than 40%.
As for `CS(=O)(=O)CC(=O)N(CCN1[C@@H]2CC[C@H]1C[C@@H](c1cccc(O)c1)C2)CC1CCCCC1`, the pKi in assay [1] and in assay [3] was 7 to 10.5 each time. Further, in assay [2], the Intrinsic activity is less than 40%.
Turning to `CN(C)CC[C@H](O)C(=O)N(CCN1[C@@H]2CC[C@H]1C[C@@H](c1cccc(C(N)=O)c1)C2)CC1CCC(F)(F)CC1.O=C(O)C(F)(F)F.O=C(O)C(F)(F)F`, the negative logarithm of the Ki (pKi) in assay [1] and in assay [3] was 7 to 10.5 throughout. The molecule further came in with an Intrinsic activity in assay [2] of less than 40%.
`NC(=O)c1cccc([C@H]2C[C@H]3CC[C@@H](C2)N3CCN(Cc2ccccc2)C(=O)[C@@H](O)CO)c1.O=C(O)C(F)(F)F`: the negative logarithm of the Ki (pKi) in assay [1] and in assay [3] was 7 to 10.5 in each case. Moreover, the Intrinsic activity in assay [2] was less than 40%.
Take `CC(=O)N(CCN1[C@@H]2CC[C@H]1C[C@@H](c1cccc(O)c1)C2)CC1CCCCC1`: the negative-log Ki (pKi) in assay [1] and in assay [3] was 7 to 10.5 throughout. The molecule also yielded an Intrinsic activity in assay [2] of less than 40%.
In the case of `CN(C)CCCC(=O)N(CCN1[C@@H]2CC[C@H]1C[C@@H](c1cccc(C(N)=O)c1)C2)CC1CCCCC1`, the pKi in assay [1] and in assay [3] was 7 to 10.5 each time. In assay [2], this molecule came in with an Intrinsic activity of less than 40%.
Consider `CN(C)S(=O)(=O)N(CCN1[C@@H]2CC[C@H]1C[C@@H](c1cccc(C(N)=O)c1)C2)Cc1ccc(C(F)(F)F)cc1.O=C(O)C(F)(F)F`, for which the pKi in assay [1] and in assay [3] was 7 to 10.5 each time. The same molecule showed an Intrinsic activity in assay [2] of less than 40%.
As to `NC(=O)c1cccc([C@H]2C[C@H]3CC[C@@H](C2)N3CCN(CCC2CCCCC2)C(=O)CO)c1`, the negative-log Ki (pKi) in assay [1] and in assay [3] was 7 to 10.5 each time. In assay [2], this molecule yielded an Intrinsic activity of less than 40%.
`CCCCCNC(=O)N(CCN1[C@@H]2CC[C@H]1C[C@@H](c1cccc(C(N)=O)c1)C2)CC1CCCCC1`: the pKi in assay [1] and in assay [3] was 7 to 10.5 throughout. Besides, in assay [2], the Intrinsic activity is less than 40%.
For `NC(=O)c1cccc([C@H]2C[C@H]3CC[C@@H](C2)N3CCN(CC2CCCCC2)C(=O)Nc2ccc3c(c2)OCO3)c1`, the pKi in assay [1] and in assay [3] was 7 to 10.5 in each case. The same molecule yielded an Intrinsic activity in assay [2] of less than 40%.
On to `O=C(O)CC(=O)N(CCN1[C@@H]2CC[C@H]1C[C@@H](c1cccc(O)c1)C2)Cc1cccc(F)c1`, for which the pKi in assay [1] and in assay [3] was 7 to 10.5 throughout. Further, the Intrinsic activity in assay [2] was less than 40%.
As to `NC(=O)c1cccc([C@H]2C[C@H]3CC[C@@H](C2)N3CCN(Cc2cccc(F)c2)C(=O)CO)c1.O=C(O)C(F)(F)F`, the negative-log Ki (pKi) in assay [1] and in assay [3] was 7 to 10.5 each time. The Intrinsic activity in assay [2] was less than 40%.
For `NC(=O)c1cccc([C@H]2C[C@H]3CC[C@@H](C2)N3CCN(CC2CCCC2)C(=O)CO)c1.O=C(O)C(F)(F)F`, the pKi in assay [1] and in assay [3] was 7 to 10.5 in each case. The Intrinsic activity in assay [2] is less than 40%.
For the molecule `NC(=O)c1cccc([C@H]2C[C@H]3CC[C@@H](C2)N3CCN(CC2CCCCC2)C(=O)C[C@H](O)CO)c1.O=C(O)C(F)(F)F`, the pKi in assay [1] and in assay [3] was 7 to 10.5 in each case. The Intrinsic activity in assay [2] was less than 40%.
Regarding `O=C(CO)N(CCN1[C@@H]2CC[C@H]1C[C@@H](c1cccc(O)c1)C2)Cc1cccc(F)c1`, the pKi in assay [1] and in assay [3] was 7 to 10.5 throughout. Moreover, the Intrinsic activity in assay [2] was less than 40%.
As for `CS(=O)(=O)CC(=O)N(CCN1[C@@H]2CC[C@H]1C[C@@H](c1cccc(C(N)=O)c1)C2)CC1CCC(F)(F)CC1.O=C(O)C(F)(F)F`, the pKi in assay [1] and in assay [3] was 7 to 10.5 each time. The Intrinsic activity in assay [2] is less than 40%.
For the molecule `CC(=O)OCC(=O)N(CCN1[C@@H]2CC[C@H]1C[C@@H](c1cccc(O)c1)C2)Cc1ccccc1.O=C(O)C(F)(F)F`, the pKi in assay [1] and in assay [3] was 7 to 10.5 each time. This molecule gave an Intrinsic activity in assay [2] of less than 40%.
For the molecule `NC(=O)c1cccc([C@H]2C[C@H]3CC[C@@H](C2)N3CCN(Cc2c(F)cccc2F)C(=O)[C@H](O)CO)c1.O=C(O)C(F)(F)F`, the negative-log Ki (pKi) in assay [1] and in assay [3] was 7 to 10.5 each time. In addition, in assay [2], the Intrinsic activity was less than 40%.
Consider `CS(=O)(=O)CC(=O)N(CCc1ccc(F)cc1)CCN1[C@@H]2CC[C@H]1C[C@@H](c1cccc(C(N)=O)c1)C2.O=C(O)C(F)(F)F`, for which the negative logarithm of the Ki (pKi) in assay [1] and in assay [3] was 7 to 10.5 in each case. This molecule also displayed an Intrinsic activity in assay [2] of less than 40%.
